According to ChEMBL document CHEMBL5729772, “MYST family histone acetyltransferase inhibitors” (2023):

What was measured:
[1] = target: Histone acetyltransferase KAT6A (Homo sapiens, UniProt Q92794); test: KAT-6A Enzyme Assay: KAT-6A. Enzyme assay buffer was 50 mM Tris pH 8.0, 0.002% Tween20, 0.005% bovine skin gelatin, and 1 mM dithiothreitol (DTT). For determination of IC50values, compounds were serially diluted with 2% (v/v) DMSO in the final reaction, pre-incubating each dilution of each compound with 40 μL of assay buffer containing KAT-6A enzyme (12.5 nM final concentration). 10 μL of assay buffer containing 1 μM peptide substrate and 1 μM acetyl coenzyme A (final concentrations) was added. Reactions (50 μL total) were then carried out at 25° C. for 90 minutes. Reactions were terminated by the addition of 0.5% formic acid (final concentration), and a sample of each reaction was analyzed by SAMDI Tech, Inc. (Chicago, Ill.) using self-assembled monolayer desorption/ionization time-of-flight mass spectrometry (Mrksich, M. (2008) Mass spectrometry of self-assembled monolayers: a new tool for molecular surface science. ACS Nano 2, 7-18).
Sequence of Histone acetyltransferase KAT6A (Q92794 whole entry): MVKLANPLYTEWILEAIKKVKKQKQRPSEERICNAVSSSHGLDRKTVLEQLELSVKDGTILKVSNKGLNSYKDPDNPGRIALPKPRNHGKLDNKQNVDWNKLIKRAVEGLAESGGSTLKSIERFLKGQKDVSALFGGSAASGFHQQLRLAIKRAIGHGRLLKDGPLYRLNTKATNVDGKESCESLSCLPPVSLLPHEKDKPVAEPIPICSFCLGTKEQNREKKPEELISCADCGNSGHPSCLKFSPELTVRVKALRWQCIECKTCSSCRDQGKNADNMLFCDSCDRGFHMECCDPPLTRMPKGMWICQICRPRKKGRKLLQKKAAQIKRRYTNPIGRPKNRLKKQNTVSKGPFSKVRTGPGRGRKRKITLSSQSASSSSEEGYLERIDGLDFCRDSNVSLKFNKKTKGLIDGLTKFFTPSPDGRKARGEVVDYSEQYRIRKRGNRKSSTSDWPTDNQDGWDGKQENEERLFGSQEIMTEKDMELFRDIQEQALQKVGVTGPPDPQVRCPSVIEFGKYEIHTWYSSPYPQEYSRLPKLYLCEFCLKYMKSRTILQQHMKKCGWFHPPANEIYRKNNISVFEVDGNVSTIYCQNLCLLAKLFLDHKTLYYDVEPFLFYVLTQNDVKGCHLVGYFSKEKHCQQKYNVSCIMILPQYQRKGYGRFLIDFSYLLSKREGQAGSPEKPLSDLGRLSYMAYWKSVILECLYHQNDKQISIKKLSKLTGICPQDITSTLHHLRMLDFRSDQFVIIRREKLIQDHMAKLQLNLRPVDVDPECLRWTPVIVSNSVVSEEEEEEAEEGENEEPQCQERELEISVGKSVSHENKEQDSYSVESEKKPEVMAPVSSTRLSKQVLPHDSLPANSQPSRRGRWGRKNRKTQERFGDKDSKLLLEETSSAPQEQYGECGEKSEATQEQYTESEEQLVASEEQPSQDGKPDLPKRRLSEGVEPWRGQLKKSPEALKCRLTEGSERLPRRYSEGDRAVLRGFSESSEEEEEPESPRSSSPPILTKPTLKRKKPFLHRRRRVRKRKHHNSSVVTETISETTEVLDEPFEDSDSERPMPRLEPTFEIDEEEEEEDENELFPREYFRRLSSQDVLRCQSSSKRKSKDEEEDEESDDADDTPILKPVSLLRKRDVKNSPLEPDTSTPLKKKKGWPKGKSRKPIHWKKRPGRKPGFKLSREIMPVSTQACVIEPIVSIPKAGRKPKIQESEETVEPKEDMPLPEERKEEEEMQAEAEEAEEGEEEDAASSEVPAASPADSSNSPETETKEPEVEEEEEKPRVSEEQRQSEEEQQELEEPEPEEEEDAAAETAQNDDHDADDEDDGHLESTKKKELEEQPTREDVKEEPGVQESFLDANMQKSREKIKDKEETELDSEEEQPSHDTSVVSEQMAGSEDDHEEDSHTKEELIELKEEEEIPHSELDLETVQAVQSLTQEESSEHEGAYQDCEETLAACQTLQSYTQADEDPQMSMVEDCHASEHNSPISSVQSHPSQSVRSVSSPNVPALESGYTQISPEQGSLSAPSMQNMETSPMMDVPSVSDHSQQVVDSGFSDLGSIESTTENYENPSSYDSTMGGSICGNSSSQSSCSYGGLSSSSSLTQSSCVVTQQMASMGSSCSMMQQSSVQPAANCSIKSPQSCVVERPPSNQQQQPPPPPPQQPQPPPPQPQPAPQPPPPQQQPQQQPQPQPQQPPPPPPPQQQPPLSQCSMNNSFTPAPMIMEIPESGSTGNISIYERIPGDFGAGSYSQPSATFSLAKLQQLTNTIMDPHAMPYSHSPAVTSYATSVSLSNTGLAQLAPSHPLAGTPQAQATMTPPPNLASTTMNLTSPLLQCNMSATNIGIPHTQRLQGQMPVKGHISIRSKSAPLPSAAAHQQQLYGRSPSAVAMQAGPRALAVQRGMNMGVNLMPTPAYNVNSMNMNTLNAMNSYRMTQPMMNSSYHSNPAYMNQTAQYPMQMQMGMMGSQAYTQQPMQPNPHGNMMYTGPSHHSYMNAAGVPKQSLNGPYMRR

[2] = target: T1, Histone acetyltransferase KAT8 (Homo sapiens, UniProt Q9H7Z6); test: KAT-8 Enzyme Assay: Enzyme assay buffer was 50 mM Tris pH 8.0, 0.002% Tween20, 0.005% bovine skin gelatin, and 1 mM dithiothreitol (DTT). For determination of IC50values, compounds were serially diluted with 2% (v/v) DMSO in the final reaction, pre-incubating each dilution of each compound with 40 μL of assay buffer containing KAT-8 enzyme (12.5 nM final concentration). 10 μL of assay buffer containing 1 μM peptide substrate and 5 μM acetyl coenzyme A (final concentrations) was added. Reactions (50 μL total) were then carried out at 25° C. for 90 minutes. Reactions were terminated by the addition of 0.5% formic acid (final concentration), and a sample of each reaction was analyzed by SAMDI Tech, Inc. (Chicago, Ill.) using self-assembled monolayer desorption/ionization time-of-flight mass spectrometry (Mrksich, M. (2008) Mass spectrometry of self-assembled monolayers: a new tool for molecular surface science. ACS Nano 2, 7-18).
T1 sequence (Q9H7Z6 whole entry): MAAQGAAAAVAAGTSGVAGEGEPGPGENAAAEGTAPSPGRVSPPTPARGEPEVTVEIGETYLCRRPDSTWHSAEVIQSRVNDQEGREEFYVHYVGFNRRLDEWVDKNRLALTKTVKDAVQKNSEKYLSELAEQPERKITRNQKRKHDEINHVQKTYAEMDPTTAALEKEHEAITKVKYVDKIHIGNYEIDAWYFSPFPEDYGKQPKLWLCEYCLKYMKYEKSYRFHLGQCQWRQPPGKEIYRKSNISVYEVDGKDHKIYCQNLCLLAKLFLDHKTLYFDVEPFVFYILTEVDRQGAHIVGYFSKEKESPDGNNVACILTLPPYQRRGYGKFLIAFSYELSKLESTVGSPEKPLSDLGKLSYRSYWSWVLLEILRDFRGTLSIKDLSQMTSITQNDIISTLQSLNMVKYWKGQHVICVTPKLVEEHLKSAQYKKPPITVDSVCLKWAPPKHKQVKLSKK

[3] = target: Histone acetyltransferase KAT5 (Homo sapiens, UniProt Q92993); test: KAT-5 Enzyme Assay: Enzyme assay buffer was 50 mM Tris pH 8.0, 0.002% Tween20, 0.005% bovine skin gelatin, and 1 mM dithiothreitol (DTT). For determination of IC50values, compounds were serially diluted with 2% (v/v) DMSO in the final reaction, pre-incubating each dilution of each compound with 40 μL of assay buffer containing KAT-5 enzyme (9 nM final concentration). 10 μL of assay buffer containing 1 μM peptide substrate and 0.5 μM acetyl coenzyme A (final concentrations) was added. Reactions (50 μL total) were then carried out at 25° C. for 90 minutes. Reactions were terminated by the addition of 0.5% formic acid (final concentration), and a sample of each reaction was analyzed by SAMDI Tech, Inc. (Chicago, Ill.) using self-assembled monolayer desorption/ionization time-of-flight mass spectrometry (Mrksich, M. (2008) Mass spectrometry of self-assembled monolayers: a new tool for molecular surface science. ACS Nano 2, 7-18).
Sequence of Histone acetyltransferase KAT5 (Q92993 whole entry): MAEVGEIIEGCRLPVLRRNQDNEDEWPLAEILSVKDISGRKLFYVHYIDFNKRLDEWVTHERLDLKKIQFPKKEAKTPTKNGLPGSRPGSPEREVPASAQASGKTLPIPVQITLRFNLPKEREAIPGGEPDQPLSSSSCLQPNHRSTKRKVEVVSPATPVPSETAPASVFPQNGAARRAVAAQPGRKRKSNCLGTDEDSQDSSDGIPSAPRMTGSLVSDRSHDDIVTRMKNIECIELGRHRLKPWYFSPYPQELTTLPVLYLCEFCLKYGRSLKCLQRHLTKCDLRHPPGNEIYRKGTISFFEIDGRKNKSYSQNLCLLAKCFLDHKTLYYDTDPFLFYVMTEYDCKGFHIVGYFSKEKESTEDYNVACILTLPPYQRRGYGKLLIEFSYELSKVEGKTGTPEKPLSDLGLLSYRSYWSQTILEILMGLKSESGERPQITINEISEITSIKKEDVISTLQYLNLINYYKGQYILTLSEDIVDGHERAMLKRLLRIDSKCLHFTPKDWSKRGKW

[4] = target: Histone acetyltransferase KAT7 (Homo sapiens, UniProt O95251); test: KAT-7 Enzyme Assay: Enzyme assay buffer was 50 mM Tris pH 8.0, 0.002% Tween20, 0.005% bovine skin gelatin, and 1 mM dithiothreitol (DTT). For determination of IC50values, compounds were serially diluted with 2% (v/v) DMSO in the final reaction, pre-incubating each dilution of each compound with 40 μL of assay buffer containing KAT-7 enzyme (6 nM final concentration). 10 μL of assay buffer containing 1 μM peptide substrate and 2 μM acetyl coenzyme A (final concentrations) was added. Reactions (50 μL total) were then carried out at 25° C. for 120 minutes. Reactions were terminated by the addition of 0.5% formic acid (final concentration), and a sample of each reaction was analyzed by SAMDI Tech, Inc. (Chicago, Ill.) using self-assembled monolayer desorption/ionization time-of-flight mass spectrometry (Mrksich, M. (2008) Mass spectrometry of self-assembled monolayers: a new tool for molecular surface science. ACS Nano 2, 7-18).
Sequence of Histone acetyltransferase KAT7 (O95251 whole entry): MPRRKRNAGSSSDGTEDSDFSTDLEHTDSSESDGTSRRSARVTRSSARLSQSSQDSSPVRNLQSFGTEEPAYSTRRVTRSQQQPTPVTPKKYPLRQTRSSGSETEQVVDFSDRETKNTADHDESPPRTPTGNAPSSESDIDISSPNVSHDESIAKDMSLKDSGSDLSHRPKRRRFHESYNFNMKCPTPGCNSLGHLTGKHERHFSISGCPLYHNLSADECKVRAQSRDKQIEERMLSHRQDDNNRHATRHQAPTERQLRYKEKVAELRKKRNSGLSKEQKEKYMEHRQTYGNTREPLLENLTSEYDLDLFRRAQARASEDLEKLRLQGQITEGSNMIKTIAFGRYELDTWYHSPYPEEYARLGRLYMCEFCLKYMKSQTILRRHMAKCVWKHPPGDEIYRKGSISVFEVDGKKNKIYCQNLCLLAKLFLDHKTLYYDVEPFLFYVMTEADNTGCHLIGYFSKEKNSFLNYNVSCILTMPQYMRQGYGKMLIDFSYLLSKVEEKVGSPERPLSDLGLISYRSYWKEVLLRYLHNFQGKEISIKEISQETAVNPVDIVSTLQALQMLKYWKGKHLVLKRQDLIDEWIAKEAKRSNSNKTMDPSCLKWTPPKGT

In the case of CNc1cccc(S(=O)(=O)NNC(=O)c2cc(-c3cn(C)cn3)cc(Cl)c2F)c1, the IC50 [1] is reported as less than 10 µM, the IC50 [2] is reported as “in the range around 30 µM” and the IC50 [3] is reported as less than 10 µM. It also gave an IC50 [4] of less than 10 µM.

COc1ccc(S(=O)(=O)NNC(=O)c2cc(-c3cn(C)cn3)cc(Cl)c2F)c(F)c1 was tested, and the IC50 [1] was less than 10 µM, the IC50 [2] was “in the range around 30 µM” and the IC50 [3] was less than 10 µM. The IC50 [4] was less than 10 µM.

Cn1cnc(-c2cc(Cl)c(F)c(C(=O)NNS(=O)(=O)c3ccccc3F)c2)c1 was tested, and the IC50 [1] was less than 10 µM, the IC50 [2] was “in the range around 30 µM” and the IC50 [3] was less than 10 µM. It also gave an IC50 [4] of less than 10 µM.

In the case of COc1ccc(S(=O)(=O)NNC(=O)c2cc(-c3cn(C)cn3)cc(Cl)c2F)cc1, the IC50 [1] is reported as less than 10 µM, the IC50 [2] is reported as “in the range around 30 µM” and the IC50 [3] is reported as less than 10 µM. The IC50 [4] was less than 10 µM.

COc1ccc(S(=O)(=O)NNC(=O)c2cc(-c3cn(C)cn3)cc(Cl)c2F)nc1 was tested, and the IC50 [1] was less than 10 µM, the IC50 [2] was “in the range around 30 µM” and the IC50 [3] was less than 10 µM. It also gave an IC50 [4] of less than 10 µM.
